Like-named read-outs stand apart in the source and are kept apart here. Some results are limits rather than exact numbers.

For one data set, the system named is MDA-MB-231 (231). In words: CCK8 anticancer activity / cytotoxicity test, 231. It counts as cell-based, human.
A further data set deals with MDA-MB-361 (361). In words: CCK8 anticancer activity / cytotoxicity test, 361. Type of data set: cell-based. The protocol:
(§1) The IC50 was calculated by SPSS statistics (IBM). […] All cytotoxicity tests were performed in six biological replicates.
(§2) The anticancer activity against 231BR is of highest interest. […] Figure 3 depicts the anticancer activities of these compounds.

A further data set has as its system HTB131. In words: CCK8 anticancer activity / cytotoxicity test, HTB131. It counts as cell-based.
For a further data set, the system named is CRL-1620 (CRL). In words: CCK8 anticancer activity / cytotoxicity test, CRL. It counts as cell-based.
The next data set has as its system MCF10A. In words: CCK8 cytotoxicity test on normal cell line MCF10A. The protocol: (§3) MDA-MB-231 (231) and HTB131 were grown with RPIM-1640 medium (with 10% Fetal Bovine Serum and 2% Penicillin-Streptomycin Solution). MDA-MB-231BR (231BR), CRL-1620 (CRL), and MCF10A were grown with DMEM (with 10% Fetal Bovine Serum and 2% Penicillin-Streptomycin Solution). HTB22 was grown with EMEM (with 10% Fetal Bovine Serum and 2% Penicillin-Streptomycin Solution). Cell lines were taken out from liquid nitrogen and thawed in a 37°C water bath. After thawing, cell cultures were transferred to 75 cm^2 flasks and incubated at 37°C with 5% CO2 for 4–7 days. After reaching 80% of cell confluence, cells were ready for subculturing or testing.
(§4) Anticancer activity tests were performed using a Cell Counting Kit-8 (CCK8, SigmaAldrich) following manufacturer’s instruction ([Shen et al., 2016]). Briefly, 100 µl of diluted cell suspension (approximately 10000 cells) was transferred to 96-well plate, incubated at 37°C with 5% CO2 for 24 h. Then, the compounds were diluted into a serial of concentrations in DMSO. Next, 0.5 µl of diluted compounds were added to 100 µl of cell medium and gently mixed, resulting in the final concentration of DMSO at 0.5%. 100 µl of the compound contained medium were then used to replace the original medium and incubated at 37°C for 48 h. After incubation with compounds, 10 µl of CCK8 reagent was added to each well and mixed by gently tapping the plate. Then, the plate was incubated at 37°C for 2–4 h until the orange color was dark enough to measure. The plate was measured using a Multiskan microplate reader (Fisher Scientific) at 450 nm. The IC50 was calculated by SPSS statistics (IBM). […] All cytotoxicity tests were performed in six biological replicates. Each compound was performed two cycles of screening: primary screening using 10 times serial dilution to determine the approximate concentration and then secondary screening using a narrow concentration range to acquire the accurate IC50.
(§5) The newly synthesized molecules in which their binding affinities were predicted in silico were tested on five different breast cancer lines, MDA-MB-231 (231), MDA-MB-361 (361), HTB131, HTB22, and MDA-MB-231BR (231BR), and one brain cancer cell line, CRL-1620 (CRL). […] Among these cell lines, 231BR attracted most of our interest because it is a brain metastatic specific breast cancer cell line that has 100% rate of brain metastasis and cannot migrate to any other organs ([Yoneda et al., 2001]). The anticancer capacities of each compound were first screened by 10 times dilution to generate different molar concentrations ranging in 5 orders of magnitudes. This wide concentration range was applied for primary screening (Supplementary Table S3) to narrow down the targets. The approximate IC50 was estimated in the primary screening step and used to design the concentration range of the secondary cytotoxicity tests (Supplementary Table S4). […] Anticancer drug taxol (paclitaxel) was used as the reference to estimate the efficacy of each compound. […] The anticancer activity against 231BR is of highest interest. Meanwhile, the same treatments were performed against the normal breast cell line, MCF10A, to test their cytotoxicity. […] A negative logarithm of IC50 was applied to represent the corresponding anticancer activity.

Another data set relates to MDA-MB-231BR (231BR). Kind of data set: CCK8 anticancer activity / cytotoxicity test, 231BR. It counts as cell-based. On the procedure:
as §1, §2

The next data set deals with HTB22. Kind of data set: CCK8 anticancer activity / cytotoxicity test, HTB22. Type of data set: cell-based. The following applies: HTB22, 48 h, 10 times serial dilution; read-out: Approximate IC50, primary screening. The protocol:
as §1, §2

Data set [1] can be described thus: CCK8 cytotoxicity test on normal cell line MCF10A. Conditions: human, MCF10A normal breast cells. On the procedure: as §3, §4, §5
Where [2] appears, read: 231BR, 48 h, 10 times serial dilution, read-out: Approximate IC50, primary screening.
The mark [3] stands for this setting: HTB131, 48 h, 10 times serial dilution, read-out: Approximate IC50, primary screening.
Where [4] appears, read: HTB131, 48 h, narrow concentration range, read-out: IC50, secondary cytotoxicity test.
Where [5] appears, read: CRL, 48 h, narrow concentration range, read-out: IC50, secondary cytotoxicity test.
Setting [6] is: 231BR, 48 h, narrow concentration range, read-out: IC50, secondary cytotoxicity test.
[7] abbreviates: CRL, 48 h, 10 times serial dilution, read-out: Approximate IC50, primary screening.

Take `COc1ccc(-c2ccc3ccc4ccc(-c5ccc(OC)cc5)nc4c3n2)cc1.Cc1cc2ccc1OCCOCCOCCOCCOCCOc1ccc(cc1C)-c1ccc3ccc4ccc-2nc4c3n1.F[P-](F)(F)(F)(F)F.[Cu+]` [Compound C1]: the IC50 with MDA-MB-231 (231) was 403 nM; in the data set with MDA-MB-361 (361), 6500 nM; with HTB131, 228 nM; with CRL-1620 (CRL) it was 315 nM; in the data set on MCF10A, 1000 nM; in the data set with MDA-MB-231BR (231BR), 597 nM. Also, in the data set with MDA-MB-231BR (231BR) (setting [2]), the IC50 is less than 10000 nM.
For the compound `CCC1=NC(=Cc2[nH]c(-c3cn[nH]c3)cc2OC)C=C1.CCC1=NC(=Cc2[nH]c(-c3cn[nH]c3)cc2OC)C=C1.F[P-](F)(F)(F)(F)F.[Cu+]` [Compound C8], the IC50 in the data set on MDA-MB-231BR (231BR) (setting [2]) is 48500 nM.
Consider `CCC1=NC(=Cc2[nH]c(-c3ccn[nH]3)cc2OC)C=C1.CCC1=NC(=Cc2[nH]c(-c3ccn[nH]3)cc2OC)C=C1.F[P-](F)(F)(F)(F)F.[Cu+]` [Compound C9], for which, in the data set on HTB131 (setting [3]), the IC50 came to 10200 nM.
Turning to `CCC1=NC(=Cc2[nH]c(-c3ncc[nH]3)cc2OC)C=C1.CCC1=NC(=Cc2[nH]c(-c3ncc[nH]3)cc2OC)C=C1.F[P-](F)(F)(F)(F)F.[Cu+]` [Compound C10], the IC50 in the data set with MDA-MB-231 (231) (231, 48 h, narrow concentration range, read-out: IC50, secondary cytotoxicity test) was 2860 nM; with HTB131 (setting [4]) it was 2170 nM; with CRL-1620 (CRL) (setting [5]), 1600 nM; in the data set with MCF10A (read-out: IC50, secondary cytotoxicity test, MCF10A normal cell line, 48 h, Table S4) it was 1400 nM; with MDA-MB-231BR (231BR) (setting [6]) it was 2200 nM.
Take `CCC1=NC(=Cc2[nH]c(-c3ccc4[nH]ccc4c3)cc2OC)C=C1.CCC1=NC(=Cc2[nH]c(-c3ccc4[nH]ccc4c3)cc2OC)C=C1.F[P-](F)(F)(F)(F)F.[Cu+]` [Compound C14]: the IC50 was 38300 nM in the data set on CRL-1620 (CRL) (setting [7]) and greater than 385000 nM in the data set with MCF10A (read-out: Approximate IC50, primary screening, MCF10A normal cell line, 48 h, 10 times serial dilution). Also, the “anticancer activity increase of copper(I) complex compared with its ligand” value with MDA-MB-231BR (231BR) (231BR, C14 compared with L14) stood at 5.9 times.
`CCC1=NC(=Cc2[nH]c(-c3cccc4cc[nH]c34)cc2OC)C=C1.CCC1=NC(=Cc2[nH]c(-c3cccc4cc[nH]c34)cc2OC)C=C1.F[P-](F)(F)(F)(F)F.[Cu+]` [Compound C15]: the IC50 in the data set on MDA-MB-231BR (231BR) (setting [2]) came out at 31900 nM.
As to `CCC1=N/C(=C\c2[nH]c(-c3cccn3C(=O)OC(C)(C)C)cc2OC)C=C1` [Compound L7], the 50% inhibitory concentration (IC50) is 0.0278 µg/mL in the data set with MDA-MB-231 (231) (Homo sapiens, MDA-MB-231, 48 h, read-out: IC50, secondary cytotoxicity test); 75 to 750 nM with MDA-MB-231 (231) (Homo sapiens, MDA-MB-231, 231, 48 h, 10 times serial dilution, read-out: Approximate IC50, primary screening); 75.8 nM in the data set on MDA-MB-231 (231) (Homo sapiens, MDA-MB-231, 231, 48 h, narrow concentration range, read-out: IC50, secondary cytotoxicity test); 2.12 µg/mL in the data set on MDA-MB-361 (361) (Homo sapiens, MDA-MB-361, 48 h, read-out: IC50, secondary cytotoxicity test); 750 to 7500 nM in the data set on MDA-MB-361 (361) (Homo sapiens, MDA-MB-361, 361, 48 h, 10 times serial dilution, read-out: Approximate IC50, primary screening); 5790 nM with MDA-MB-361 (361) (Homo sapiens, MDA-MB-361, 361, 48 h, Table S4, read-out: IC50, secondary cytotoxicity test). Moreover, the IC50 in the data set with HTB131 (setting [3]) was 75 to 750 nM; in the data set on HTB131 (setting [4]), 139 nM; in the data set with HTB131 (HTB131, 48 h, read-out: IC50, secondary cytotoxicity test), 0.0512 µg/mL; with HTB22, 750 to 7500 nM; with CRL-1620 (CRL) (setting [7]) it was 750 to 7500 nM; in the data set on CRL-1620 (CRL) (setting [5]), 409 nM. The IC50 was 0.15 µg/mL in the data set with CRL-1620 (CRL) (CRL, 48 h, read-out: IC50, secondary cytotoxicity test); 75 to 750 nM in the data set on MCF10A (Homo sapiens, MCF-10A, 48 h, read-out: Approximate IC50, primary screening); 75 nM in the data set with MDA-MB-231BR (231BR) (setting [2]); 46.3 nM in the data set with MDA-MB-231BR (231BR) (setting [6]); 0.017 µg/mL with MDA-MB-231BR (231BR) (231BR, 48 h, read-out: IC50, secondary cytotoxicity test). The IC50 at 48 h in data set [1] came out at 3930 nM.

The values are drawn from publication PMC9578020, “Design, synthesis, molecular modeling, and bioactivity evaluation of 1,10-phenanthroline and prodigiosin (Ps) derivatives and their Copper(I) complexes against mTOR and HDAC enzymes as highly potent and effective new anticancer therapeutic drugs” (Frontiers in Pharmacology, 2022).
